The supplement of paper PMC12076712

What was measured:
[1] = target: T1, ILK (UniProt Q13418); assay: pIC50, kinobeads binding competition
T1 sequence (whole entry): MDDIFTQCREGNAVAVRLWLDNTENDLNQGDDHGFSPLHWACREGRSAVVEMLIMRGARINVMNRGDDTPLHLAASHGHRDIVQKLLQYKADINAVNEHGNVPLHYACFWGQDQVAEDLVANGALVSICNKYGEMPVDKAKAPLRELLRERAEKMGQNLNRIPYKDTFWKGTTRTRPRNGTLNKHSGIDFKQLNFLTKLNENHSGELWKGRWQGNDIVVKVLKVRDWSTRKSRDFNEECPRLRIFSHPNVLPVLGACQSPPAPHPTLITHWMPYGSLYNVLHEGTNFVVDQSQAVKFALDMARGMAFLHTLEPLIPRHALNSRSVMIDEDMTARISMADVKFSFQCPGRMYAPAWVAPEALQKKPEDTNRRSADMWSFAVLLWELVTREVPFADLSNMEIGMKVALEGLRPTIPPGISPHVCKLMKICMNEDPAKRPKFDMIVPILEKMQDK
Summary of the method: (§1)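 pIC50 was obtained by fitting fold changes against vehicle to logistic dose-response curves with the R drc package, using biological duplicates. Kinobeads-bound proteins were digested and measured by TMT10 LC-MS/MS. Before this, either living Jurkat cells received nine compound concentrations (top 30 μM, 1:4 steps) for 60 min at 37 °C prior to lysis, or Jurkat lysate or a 1:1:1:1 HEK293/K-562/HepG2/placenta lysate mix received nine concentrations (top 30 μM, 1:5 steps) for 60 min at 4 °C.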

[2] = target: UniProt Q02779; assay: pIC50, kinobeads binding competition; settings: cell material: Lysate mix
Summary of the method: as §1

[3] = target: PAK2 (UniProt Q13177); assay: pIC50, competition of probe 3 labelling in live cells; settings: cell material: Jurkat cells
[4] = target: UniProt Q9NWV4; assay: as above; settings: cell material: Jurkat cells
[5] = target: LIMK2 (UniProt P53671); assay: as above; settings: cell material: Jurkat cells
[6] = target: T2, ITK (UniProt Q08881); assay: as above; settings: cell material: Jurkat cells
T2 sequence (whole entry): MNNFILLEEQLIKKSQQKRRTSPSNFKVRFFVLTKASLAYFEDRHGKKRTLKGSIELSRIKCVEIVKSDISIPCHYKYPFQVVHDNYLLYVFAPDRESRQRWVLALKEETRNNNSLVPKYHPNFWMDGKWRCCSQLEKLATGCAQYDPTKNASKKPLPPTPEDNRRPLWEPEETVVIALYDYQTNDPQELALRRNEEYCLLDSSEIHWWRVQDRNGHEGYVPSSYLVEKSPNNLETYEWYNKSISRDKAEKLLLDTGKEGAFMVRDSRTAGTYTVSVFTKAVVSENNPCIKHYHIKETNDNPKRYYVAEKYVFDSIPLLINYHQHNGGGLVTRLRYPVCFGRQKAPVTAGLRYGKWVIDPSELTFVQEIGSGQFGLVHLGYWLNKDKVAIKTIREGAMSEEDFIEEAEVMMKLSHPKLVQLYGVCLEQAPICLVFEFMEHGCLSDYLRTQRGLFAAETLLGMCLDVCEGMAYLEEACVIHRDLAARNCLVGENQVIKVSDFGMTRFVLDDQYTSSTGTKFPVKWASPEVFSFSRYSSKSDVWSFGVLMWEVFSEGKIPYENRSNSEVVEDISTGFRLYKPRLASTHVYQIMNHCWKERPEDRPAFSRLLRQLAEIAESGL

[7] = target: STK35 (UniProt Q8TDR2); assay: as above; settings: cell material: Jurkat cells
[8] = target: T3, CDKL5 (UniProt O76039); assay: as above; settings: cell material: Jurkat cells
T3 sequence (whole entry): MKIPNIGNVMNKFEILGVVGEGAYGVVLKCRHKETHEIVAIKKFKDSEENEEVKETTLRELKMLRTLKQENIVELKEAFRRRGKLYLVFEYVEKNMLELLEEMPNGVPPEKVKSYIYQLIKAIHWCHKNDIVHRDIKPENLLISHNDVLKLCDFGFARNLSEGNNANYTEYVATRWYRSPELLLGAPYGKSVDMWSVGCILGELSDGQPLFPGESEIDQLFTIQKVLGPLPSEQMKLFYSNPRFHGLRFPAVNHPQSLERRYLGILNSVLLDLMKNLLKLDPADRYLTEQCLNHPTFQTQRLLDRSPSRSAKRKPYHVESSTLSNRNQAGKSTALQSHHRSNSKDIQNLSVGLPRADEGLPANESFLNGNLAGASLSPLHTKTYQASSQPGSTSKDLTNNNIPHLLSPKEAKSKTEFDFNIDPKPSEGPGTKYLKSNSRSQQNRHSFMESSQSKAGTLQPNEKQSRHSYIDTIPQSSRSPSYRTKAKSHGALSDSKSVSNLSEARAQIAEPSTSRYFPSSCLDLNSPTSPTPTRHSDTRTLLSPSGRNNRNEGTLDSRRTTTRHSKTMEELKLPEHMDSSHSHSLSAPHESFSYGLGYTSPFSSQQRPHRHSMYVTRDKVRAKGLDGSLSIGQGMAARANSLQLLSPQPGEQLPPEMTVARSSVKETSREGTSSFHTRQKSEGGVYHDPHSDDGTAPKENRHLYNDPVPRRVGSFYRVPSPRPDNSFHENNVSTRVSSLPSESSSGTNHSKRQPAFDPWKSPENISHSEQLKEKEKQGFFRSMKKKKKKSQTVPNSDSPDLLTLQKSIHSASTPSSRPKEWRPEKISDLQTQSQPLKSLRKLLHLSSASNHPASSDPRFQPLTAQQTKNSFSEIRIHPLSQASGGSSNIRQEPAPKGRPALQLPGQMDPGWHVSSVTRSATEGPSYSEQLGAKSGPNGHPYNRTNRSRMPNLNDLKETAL

[9] = target: GSTM1 (UniProt P09488); assay: as above; settings: cell material: Jurkat cells
GSTM1, sequence (P09488 whole entry): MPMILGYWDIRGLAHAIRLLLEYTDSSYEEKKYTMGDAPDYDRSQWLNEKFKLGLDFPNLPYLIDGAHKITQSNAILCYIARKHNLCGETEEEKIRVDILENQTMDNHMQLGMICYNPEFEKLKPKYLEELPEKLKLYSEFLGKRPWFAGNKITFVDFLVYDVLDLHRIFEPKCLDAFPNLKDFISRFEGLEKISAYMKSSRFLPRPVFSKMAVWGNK

UniProt Q02779, sequence (Q02779 whole entry, looked up): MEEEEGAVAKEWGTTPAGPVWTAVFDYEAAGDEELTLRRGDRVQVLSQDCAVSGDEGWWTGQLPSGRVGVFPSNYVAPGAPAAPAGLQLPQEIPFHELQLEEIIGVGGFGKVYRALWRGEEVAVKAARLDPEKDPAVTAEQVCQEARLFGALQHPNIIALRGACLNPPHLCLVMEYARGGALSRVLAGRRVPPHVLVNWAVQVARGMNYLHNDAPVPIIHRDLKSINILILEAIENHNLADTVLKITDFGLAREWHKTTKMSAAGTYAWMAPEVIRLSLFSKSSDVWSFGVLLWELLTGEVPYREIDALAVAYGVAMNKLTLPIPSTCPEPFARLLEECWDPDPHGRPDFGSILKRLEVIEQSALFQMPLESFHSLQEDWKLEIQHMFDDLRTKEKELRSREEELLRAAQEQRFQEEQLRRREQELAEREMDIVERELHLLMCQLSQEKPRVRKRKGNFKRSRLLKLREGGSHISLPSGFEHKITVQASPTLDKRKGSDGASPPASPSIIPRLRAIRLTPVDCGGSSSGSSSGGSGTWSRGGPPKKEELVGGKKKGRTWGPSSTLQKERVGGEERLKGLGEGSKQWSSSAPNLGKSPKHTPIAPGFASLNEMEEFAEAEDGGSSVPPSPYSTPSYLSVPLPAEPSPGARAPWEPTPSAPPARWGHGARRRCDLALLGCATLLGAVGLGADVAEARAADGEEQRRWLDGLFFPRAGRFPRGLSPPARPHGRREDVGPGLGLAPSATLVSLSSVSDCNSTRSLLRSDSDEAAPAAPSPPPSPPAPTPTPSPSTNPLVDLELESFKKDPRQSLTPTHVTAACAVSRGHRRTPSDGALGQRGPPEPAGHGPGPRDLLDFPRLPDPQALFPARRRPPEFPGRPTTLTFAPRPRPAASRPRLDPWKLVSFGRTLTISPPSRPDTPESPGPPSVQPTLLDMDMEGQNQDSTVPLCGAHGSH
UniProt Q9NWV4, sequence (Q9NWV4 whole entry): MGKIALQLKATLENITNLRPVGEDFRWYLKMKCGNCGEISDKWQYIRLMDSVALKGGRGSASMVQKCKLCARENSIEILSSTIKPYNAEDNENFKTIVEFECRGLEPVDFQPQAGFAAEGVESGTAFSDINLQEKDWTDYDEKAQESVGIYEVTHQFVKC
STK35, sequence (Q8TDR2 whole entry): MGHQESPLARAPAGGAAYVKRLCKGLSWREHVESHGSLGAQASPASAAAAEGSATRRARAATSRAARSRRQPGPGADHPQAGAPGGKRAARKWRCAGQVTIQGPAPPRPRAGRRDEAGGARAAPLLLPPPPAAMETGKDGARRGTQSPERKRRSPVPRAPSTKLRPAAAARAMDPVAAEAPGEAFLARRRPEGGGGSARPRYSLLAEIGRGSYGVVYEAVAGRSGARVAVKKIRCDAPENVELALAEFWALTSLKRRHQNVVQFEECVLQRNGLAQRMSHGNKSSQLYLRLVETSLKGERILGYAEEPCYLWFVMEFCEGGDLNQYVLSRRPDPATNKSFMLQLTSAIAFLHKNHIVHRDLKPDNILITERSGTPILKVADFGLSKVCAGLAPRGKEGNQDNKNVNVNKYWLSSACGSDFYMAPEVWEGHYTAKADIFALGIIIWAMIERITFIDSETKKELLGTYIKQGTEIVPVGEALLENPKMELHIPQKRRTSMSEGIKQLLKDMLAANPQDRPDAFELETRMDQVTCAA
PAK2, sequence (Q13177 whole entry): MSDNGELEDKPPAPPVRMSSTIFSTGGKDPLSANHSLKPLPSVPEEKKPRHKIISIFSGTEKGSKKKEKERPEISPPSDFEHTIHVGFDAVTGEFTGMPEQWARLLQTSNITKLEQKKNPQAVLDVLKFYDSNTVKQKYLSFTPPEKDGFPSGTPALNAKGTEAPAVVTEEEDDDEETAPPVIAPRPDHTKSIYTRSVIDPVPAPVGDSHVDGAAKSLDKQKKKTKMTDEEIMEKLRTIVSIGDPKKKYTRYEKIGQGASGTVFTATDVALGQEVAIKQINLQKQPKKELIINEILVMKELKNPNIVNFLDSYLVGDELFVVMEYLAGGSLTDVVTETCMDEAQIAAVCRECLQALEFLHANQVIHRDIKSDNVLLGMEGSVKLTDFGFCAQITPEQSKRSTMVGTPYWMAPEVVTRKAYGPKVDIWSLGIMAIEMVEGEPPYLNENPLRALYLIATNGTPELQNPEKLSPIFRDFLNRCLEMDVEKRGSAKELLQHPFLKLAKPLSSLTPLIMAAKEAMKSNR
LIMK2, sequence (P53671 whole entry, looked up): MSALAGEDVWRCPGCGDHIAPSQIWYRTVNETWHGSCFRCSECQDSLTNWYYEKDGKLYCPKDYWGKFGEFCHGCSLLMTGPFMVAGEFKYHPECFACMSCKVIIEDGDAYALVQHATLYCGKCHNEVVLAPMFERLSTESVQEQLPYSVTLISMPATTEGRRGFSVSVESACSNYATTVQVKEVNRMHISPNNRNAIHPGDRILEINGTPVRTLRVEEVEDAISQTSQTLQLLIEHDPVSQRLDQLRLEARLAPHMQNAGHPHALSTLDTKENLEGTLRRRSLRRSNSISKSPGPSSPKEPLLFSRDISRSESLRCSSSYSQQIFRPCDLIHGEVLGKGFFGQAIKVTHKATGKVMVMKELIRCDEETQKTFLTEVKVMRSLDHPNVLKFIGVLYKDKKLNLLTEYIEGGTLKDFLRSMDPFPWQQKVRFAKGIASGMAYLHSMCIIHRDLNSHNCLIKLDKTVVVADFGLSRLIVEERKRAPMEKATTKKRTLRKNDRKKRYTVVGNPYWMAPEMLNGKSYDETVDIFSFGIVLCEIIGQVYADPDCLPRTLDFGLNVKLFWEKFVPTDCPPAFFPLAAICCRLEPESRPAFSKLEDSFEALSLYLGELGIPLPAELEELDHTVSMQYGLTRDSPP

Compound `C#CCNC(=O)c1cc(Nc2cc(C3CC3)[nH]n2)nc(N2CCN(Cc3ccc(S(=O)(=O)F)cc3)CC2)n1` has a pIC50 ([1]; cell material: Jurkat cells) of 5.41 and a pIC50 ([1]; cell material: Jurkat lysate) of under 4.52.

Compound `C#CCNC(=O)c1cc(Nc2cc(C)[nH]n2)nc(N2CCN(Cc3ccc(S(=O)(=O)F)cc3)CC2)n1` has a pIC50 [2] of under 4.52 and a pIC50 ([1]; cell material: Lysate mix) of under 4.52.

In the case of `CC#CC(=O)Nc1ccc2ncnc(Nc3cccc(Br)c3)c2c1` [EKI-785], the pIC50 [3] is reported as under 4.52, the pIC50 [4] is reported as under 4.52 and the pIC50 [5] is reported as under 4.52. The pIC50 [6] was under 4.52, the pIC50 [7] was under 4.52 and the pIC50 [8] was under 4.52. It also gave a pIC50 [9] of under 4.52.

In the case of `Cc1cc(Nc2cc(C(=O)NCCNC(=O)OC3CC/C=C/CCC3)nc(N3CCN(Cc4ccc(S(=O)(=O)F)cc4)CC3)n2)n[nH]1` (configuration not stated), the pIC50 [2] is reported as under 4.52 and the pIC50 ([1]; cell material: Lysate mix) is reported as under 4.52.

In the case of `O=C(NCCNC(=O)c1cc(Nc2cc(C3CC3)[nH]n2)nc(N2CCN(Cc3ccc(S(=O)(=O)F)cc3)CC2)n1)OC1CC/C=C/CCC1` (configuration not stated), the pIC50 [2] is reported as under 4.52, the pIC50 ([1]; cell material: Jurkat cells) is reported as under 4.52 and the pIC50 ([1]; cell material: Jurkat lysate) is reported as under 4.52. The pIC50 ([1]; cell material: Lysate mix) was under 4.52.

`CCNC(=O)c1cc(Nc2cc(C)[nH]n2)nc(N2CCN(Cc3ccc(S(=O)(=O)F)cc3)CC2)n1` was tested, and the pIC50 [2] was under 4.52.

Compound `CCc1cnn2c(NCc3ccc[n+]([O-])c3)cc(N3CCCC[C@H]3CCO)nc12` [dinaciclib] has a pIC50 [3] of under 4.52, a pIC50 [4] of under 4.52 and a pIC50 [5] of under 4.52. It also gave a pIC50 [6] of under 4.52, a pIC50 [7] of under 4.52 and a pIC50 [8] of 6.12. The pIC50 [9] was under 4.52.

For `CCNC(=O)c1cc(Nc2cc(C3CC3)[nH]n2)nc(N2CCN(Cc3ccc(S(=O)(=O)F)cc3)CC2)n1`, the pIC50 [2] was 5.14 and the pIC50 ([1]; cell material: Lysate mix) was under 4.52.
